Values quoted from earlier work as cited in patent US20040229940A1, “Analeptic and antidepressant combinations” (Cephalon Inc, priority 2003, published 2004).

What was measured:
narcoleptic canine = settings: narcolepsy model, narcoleptic canine (Shelton et al, 1995)
[1] = tested on: English bulldog sleep disordered breathing model; settings: sleep apnea model, English bulldog (Panckeri et al, 1996)
canines = canines (Shelton et al., 1995)
non-human primates = non-human primates (Hernant et al, 1991)
rats = rats (Touret et al., 1995; Edgar and Seidel, 1997)
cats = cats (Lin et al., 1992)
[2] = tested on: major depressive disorder; settings: at 6 weeks

SMILES	wakefulness (narcoleptic canine)	wakefulness [1]	wakefulness (canines)	wakefulness (non-human primates)	wakefulness (rats)	wakefulness (cats)	response [2]
NC(=O)C[S+]([O-])C(c1ccccc1)c1ccccc1 (stereo not shown) [Modafinil, 2-(benzhydrylsulfinyl) acetamide]	promotes wakefulness	promotes wakefulness	promotes wakefulness	promotes wakefulness	promotes wakefulness	promotes wakefulness	–
CNCCC(Oc1ccc(C(F)(F)F)cc1)c1ccccc1 (stereo not shown) [fluoxetine]	–	–	–	–	–	–	about 50%
